The values below are quoted from earlier work in patent US20240139316A1, “USE OF OREGOVOMAB AND BEVACIZUMAB, PACLITAXEL, CARBOPLATIN FOR TREATMENT OF BRCA-WILD TYPE PLATINUM SENSITIVE RECURRENT” (CANARIABIO INC., priority 2021, published 2024).

The conditions of data set [1]: four infusions of Oregovomab with standard six cycle carboplatin and paclitaxel, relative to carboplatin-paclitaxel alone.
The conditions of data set [2]: oregovomab alone after the initial chemotherapy treatment, advanced ovarian cancer.
For data set [3] the following is noted: stage III or IV ovarian cancer after initial surgical operation; bevacizumab added to carboplatin and paclitaxel, followed by single-agent bevacizumab.

In the case of Oregovomab, in data set [1], the “overall survival (OS)” value is reported as “significant improvement” and the “progression free survival (PFS)” value is recorded as “significant improvement”. Also, the clinical outcome in data set [2] is listed as “no improvements”.

With “bevacizumab: recombinant humanized IgG1 monoclonal antibody that selectively binds human VEGF-A”, in data set [3], the Progression-free survival was 18 months.

Regarding carboplatin and paclitaxel, the Progression-free survival in data set [3] is given as 13 months.
